Like-named read-outs stand apart in the source and are kept apart here.
How the values were obtained:
hERG = hERG (Homo sapiens (Human), UniProt Q12809); assay: hERG assay (radioligand membrane binding)
Experimental: Procedure: Compounds were prepared and diluted with DMSO to make 0.2 mM and 0.02 mM. Reference compound was diluted with DMSO to make 8-point 4-fold serial dilution, starting at 0.2 mM. One μl of compounds/high control/low control was transferred to the assay plate according to the plate map. Next, and by following the plate map, 100 μl of membrane stocks was dispensed into the plate followed by adding 100 μl of radio ligand. Plates were then sealed and were incubated at RT for 1 hrs. In the meantime, soak the Unifilter-96 GF/C filter plates with 50 μl of 0.5% BSA per well for at least 0.5 hour at room temperature. When binding assays are completed, filter the reaction mixture through GF/C plates using Perkin Elmer Filtermate Harvester, and then wash each plate for 4 times with cold wash buffer. Next, Dry the filter plates for 1 hour at 50 degrees and seal the bottom of the filter plate wells using Perkin Elmer Unifilter-96 backing seal tape. Next, add 50 μl of Perkin Elmer Microscint 20 cocktail. Seal the top of the filter plate with Perkin Elmer TopSeal-A sealing film. Using Perkin Elmer MicroBeta2 Reader count ^3H trapped on filter. Finally, analyze the data with GraphPad Prism 5. Calculate the “Inhibition [% Control]” using the equation: % Inh=(1−Background subtracted Assay value/Background subtracted HC value)*100.
The compound of the disclosure were tested in several hERG assays.

[1] = molecular target: MLL1-WDR5 protein-protein interaction (Homo sapiens (Human), UniProt P61964); assay: WDR5 TR-FRET assay of inhibition against MLL1-WDR5 protein-protein interaction; type: binding
Experimental: WDR5 TR-FRET Assay Procedure: Stock compounds were transferred to the assay plate by Echo Liquid Handler. Reactions were performed in the assay buffer (1×PBS, 300 mM NaCl, 0.5 mM TCEP, 0.1% CHAPS) containing 5 nM WDR5 protein, 10 nM peptide (Ac-ARTEVHLRKS-[Ahx-Ahx] [C]-Alexa Fluor 488-NH2) and 0.25 nM Tb-anti His antibody (Tb-Ab) in 384-well white plate (PerkinElmer) with a final volume of 20 μl. Compounds were incubated with WDR5 protein for 30 min at room temperature. Plates were covered, protected from light and incubated for 60 min at room temperature after adding the peptide and Tb-Ab. EnVision Multimode Plate Reader (PerkinElmer) was used for the TR-FRET assay with excitation wavelength at 340 nm and emission wavelength at 495 and 520 nm. The ratio of the 520/495 wavelengths were used to assess the degree of the FRET signal. IC50 was calculated by fitting the inhibition data using XLfit software to sigmoidal dose-response model.
Biphenyl compound DDO-2084 was reported to be a small molecule inhibitor that can inhibit MLL1-WDR5 protein-protein interaction, reduce MLL1 enzyme catalytic activity, and downregulate the expression of Hox and Meis-1 genes (Eur. J. Med. Chem. 2016, 124, 480-489). DDO-2084 is used as a positive control compound.

MV-411 cells = assay: Anti-proliferative activity against leukemia cells (CellTiterGlo viability, 72 hrs); type: cell-based; conditions: MV4-11, MV-411 human acute monocytic leukemia cell
Experimental: Procedure: MV-411 or Molm-13 cells were seeded into 384 well plates at 2000 cells/well density in 50 uL according plate map and were allowed to naturally sediment by waiting about 30 min in Clean Bench. Next, plated cells were centrifuged for 1 min at 1000 rpm and the excess cells were transferred into the flasks for further culture. Cells in the assay plates were incubated (at least 4 hrs) at 37° C., 5% CO2 for next process followed by adding the compounds as the plate map indicated. The tests were performed in duplicates with treatment of compounds at 10 pts 3 fold titration in 384 well plates. Taxol was as positive control while DMSO as negative control. To rule out edge effect, the wells on the edge were not seeded and therefore one 384 well plate holds 13 compounds. Cells viability was measured 72 hrs after incubation with compounds and using CellTiterGlo (promega) viability assay according to manufactory's instruction to check the ATP production in each well.
Experiments on anti-proliferative activity against leukemia cells were conducted with some of the compounds of the invention.

[2] = Table 7, read-out: WDR5 TR-FRET Assay (IC50 nM)
[3] = WDR5 TR-FRET, 5 nM WDR5 protein, 10 nM peptide, read-out: MLL1-WDR5 PPI inhibitory activity

hERG, sequence (Q12809 whole entry): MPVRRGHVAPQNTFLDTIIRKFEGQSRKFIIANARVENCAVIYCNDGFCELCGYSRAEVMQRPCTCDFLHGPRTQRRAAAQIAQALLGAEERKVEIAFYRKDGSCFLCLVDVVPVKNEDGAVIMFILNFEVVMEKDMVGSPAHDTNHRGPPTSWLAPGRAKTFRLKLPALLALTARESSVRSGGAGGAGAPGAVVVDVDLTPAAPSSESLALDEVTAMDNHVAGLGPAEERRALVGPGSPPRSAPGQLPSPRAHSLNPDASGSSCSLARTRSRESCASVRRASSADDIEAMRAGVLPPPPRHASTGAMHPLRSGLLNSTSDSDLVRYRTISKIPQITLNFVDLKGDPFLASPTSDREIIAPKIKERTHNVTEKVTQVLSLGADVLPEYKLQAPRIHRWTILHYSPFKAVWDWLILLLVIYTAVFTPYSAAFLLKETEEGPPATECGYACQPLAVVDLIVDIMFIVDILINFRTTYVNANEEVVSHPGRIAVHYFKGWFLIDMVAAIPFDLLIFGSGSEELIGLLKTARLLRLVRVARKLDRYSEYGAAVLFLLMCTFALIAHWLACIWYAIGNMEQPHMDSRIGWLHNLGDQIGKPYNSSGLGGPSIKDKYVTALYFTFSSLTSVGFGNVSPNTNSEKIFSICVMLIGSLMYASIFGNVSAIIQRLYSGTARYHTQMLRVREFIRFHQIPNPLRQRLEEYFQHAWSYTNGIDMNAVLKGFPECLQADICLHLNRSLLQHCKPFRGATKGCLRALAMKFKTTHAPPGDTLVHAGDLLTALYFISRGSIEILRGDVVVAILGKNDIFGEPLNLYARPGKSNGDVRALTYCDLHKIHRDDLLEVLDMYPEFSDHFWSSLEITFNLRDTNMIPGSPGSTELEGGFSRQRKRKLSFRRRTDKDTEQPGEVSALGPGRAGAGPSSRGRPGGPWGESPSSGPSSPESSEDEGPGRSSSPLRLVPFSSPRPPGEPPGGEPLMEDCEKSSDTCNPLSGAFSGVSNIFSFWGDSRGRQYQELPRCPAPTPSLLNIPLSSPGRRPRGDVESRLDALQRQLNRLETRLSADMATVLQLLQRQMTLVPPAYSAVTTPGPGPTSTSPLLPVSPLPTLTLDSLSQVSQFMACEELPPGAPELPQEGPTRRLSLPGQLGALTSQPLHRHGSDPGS

| Compound | IC50 (hERG) | IC50 [1, 2] | GI50 (MV-411 cells; Table 7) | IC50 [1, 3] | GI50 (MV-411 cells; Table 6) | also measured |
| --- | --- | --- | --- | --- | --- | --- |
| CN1CCN(c2ccc(-n3cc(C(=O)NCCCN4CCOCC4)nn3)cc2NC(=O)c2ccc(F)c(C(F)(F)F)c2)CC1 [Example 21, 1-(3-(4-fluoro-3-(trifluoromethyl)benzamido)-4-(4-methylpiperazin-1-yl)phenyl)-N-(3-morpholinopropyl)-1H-1,2,3-triazole-4-carboxamide] | > 10000 nM | – | – | – | – | – |
| CN1CCN(c2ccc(-n3cc(C(=O)NCCCN4CCOCC4)nn3)cc2NC(=O)c2ccc(F)c([N+](=O)[O-])c2)CC1 [Example 19, 1-(3-(4-fluoro-3-nitrobenzamido)-4-(4-methylpiperazin-1-yl)phenyl)-N-(3-morpholinopropyl)-1H-1,2,3-triazole-4-carboxamide] | > 10000 nM | – | – | – | – | – |
| CN1CCCN(c2cc(F)c(-c3ccc(C(=O)N(C)C)cc3)cc2Nc2ncnc(Cl)c2N)CC1 [DDO-2213_003, 5′-((5-amino-6-chloropyrimidin-4-yl)amino)-2′-fluoro-N,N-dimethyl-4′-(4-methyl-1,4-diazepan-1-yl)-[1,1′-biphenyl]-4-carboxamide] | – | 395 nM | 59.9 µM | – | – | – |
| Cc1c(F)c(N)cc(C(=O)Nc2cc(-n3cc(C(=O)OCC4CCN(C)CC4)nn3)ccc2N2CCN(C)CC2)c1Cl [HYBI_016] | – | – | – | 20.6 nM | 7.1 µM | – |
| C[C@@H]1CN(c2ncc(-c3cc(Nc4ncnc(Cl)c4N)c(N4CCN(C)[C@@H](C)C4)cc3F)cn2)C[C@H](C)O1 [DDO-2213_023, 6-chloro-N4-(5-(2-((2S,6R)-2,6-dimethylmorpholino)pyrimidin-5-yl)-2-((S)-3,4-dimethylpiperazin-1-yl)-4-fluorophenyl)pyrimidine-4,5-diamine] | – | 3.56 nM | 2.79 µM | – | – | – |
| Cc1c(F)c([N+](=O)[O-])cc(C(=O)Nc2cc(-n3cc(C(=O)NCCCN4CCOCC4)nn3)ccc2N2CCN(C)CC2)c1Cl [Example 18, 1-[3-[(2-chloro-4-fluoro-3-methyl-5-nitro-benzoyl)amino]-4-(4-methylpiperazin-1-yl)phenyl]-N-(3-morpholinopropyl)triazole-4-carboxamide] | > 10000 nM | – | – | – | – | – |
| CCN(CC)C(=O)c1cn(-c2cc(NC(=O)c3cc(N)c(F)c(C)c3Cl)c(N3C[C@@H](C)N(C)[C@@H](C)C3)cc2F)nn1 [Compound 29, 1-(5-(5-amino-2-chloro-4-fluoro-3-methylbenzamido)-2-fluoro-4-((3S,5R)-3,4,5-trimethylpiperazin-1-yl)phenyl)-N,N-diethyl-1H-1,2,3-triazole-4-carboxamide] | 3600 nM | – | – | – | – | Ki (hERG): 2040 nM |
| Cc1c(F)c(N)cc(C(=O)Nc2cc(-n3cc(C(=O)NCCCN4CCOCC4)nn3)c(F)cc2N2C[C@@H](C)N(C)[C@@H](C)C2)c1Cl [HYBI_028] | – | – | – | 5.24 nM | 30.9 µM | – |
| CCCC(=O)Nc1ccc(-c2cc(Nc3ncnc(Cl)c3N)c(N3C[C@@H](C)N(C)[C@@H](C)C3)cc2F)cc1 [DDO-2213_007, N-(5′-((5-amino-6-chloropyrimidin-4-yl)amino)-2′-fluoro-4′-((3S,5R)-3,4,5-trimethylpiperazin-1-yl)-[1,1′-biphenyl]-4-yl)butyramide] | – | 51.3 nM | 11.5 µM | – | – | – |
| C[C@@H]1CN(c2cc(F)c(-c3ccnc(OCC4CC4)c3)cc2Nc2ncnc(Cl)c2N)C[C@H](C)N1C [DDO-2213_009, 6-chloro-N4-(5-(2-(cyclopropylmethoxy)pyridin-4-yl)-4-fluoro-2-((3S,5R)-3,4,5-trimethylpiperazin-1-yl)phenyl)pyrimidine-4,5-diamine] | – | 33.9 nM | 1.69 µM | – | – | – |
| Cc1c(F)c(N)cc(C(=O)Nc2cc(-n3cc(C(=O)NCCCN4CCOCC4)nn3)c(F)cc2N2CCN(C)CC2)c1Cl [HYBI_023] | – | – | – | 19.8 nM | 32 µM | – |
| CN1CCN(c2ccc(-n3cc(C(=O)NCCCN4CCOCC4)nn3)cc2NC(=O)c2cc(Cl)cc(Cl)c2)CC1 [HYBI_045] | – | – | – | 384 nM | 4.15 µM | – |

From patent publication US20230286925A1, “PHENYL TRIAZOLE MLL1-WDR5 PROTEIN-PROTEIN INTERACTION INHIBITOR” (HUYABIO International, LLC, priority 2022, published 2023)
